Source: US5434182A (priority 1993, dated 1995)
Where “and” joins values, the source holds several entries; their conditions need not be identical. Identical values can stand only once. Entries after “also recorded” stand apart in the source; their conditions may differ. Like-named read-outs stand apart in the source and are kept apart here.

Legend:
VSV [1] = assay: microbe, parasite or virus in culture; assay type: cell-based, vesicular stomatitis virus
HSV-1 [2] = assay: microbe, parasite or virus in culture; assay type: cell-based, herpes simplex virus type 1 strain MacIntyre; details: Human alphaherpesvirus 1, 0.5 h; 0.25 mg/ml, 37° C., 30 min; read-out: Reduction of virus titer, HSV-1
VSV [3] = assay: microbe, parasite or virus in culture; assay type: cell-based, vesicular stomatitis virus strain Indiana; details: for minimal effective concentration: read-out: Lowest concentration causing ≥3.0 log10 reduction in virus titer
HSV-1 [4] = assay type: cell-based, herpes simplex virus type 1 strain MacIntyre
Group B streptococcus = assay: Inactivation of bacteria by monoglycerides, Group B streptococcus; assay type: cell-based; details: 2 mg/ml, read-out: Reduction of bacterial concentration, Group B streptococcus
VSV [5] = assay: microbe, parasite or virus in culture; assay type: cell-based, vesicular stomatitis virus; details: for log reduction at 15000 µM: Vesicular stomatitis virus
sperm = assay: Spermicidal test: motility and viability of sperm in semen; assay type: cell-based; details: for viability at 100000 µM / viability at 150000 µM: Homo sapiens, Sperm
Protocol: The fatty acids and derivatives thereof disclosed here are useful as spermicides and in the treatment of sexually transmitted diseases. […] Four samples tested were comprised as follows:
Five test tubes were prepared, one for each of Samples A to D and a Control. An amount of 0.5 ml of active semen was added to each test tube. Each of Samples A and B and the Control was at 37° C., and Samples C and D were at room temperature. The percentages of motility and viability were measured from 15 seconds to 5 minutes in the case of each of Samples A to D and from 15 seconds to 2 hours for the Control.

Total White Blood Cells = assay: Stability of white blood cells in whole human blood to added lipid; assay type: cell-based; set-up: unit not given here; details: 15 mM, control 6.4
Excerpt: Further testing has shown the effect of monoglyceride esters and ether on the total white blood cell concentration in whole human blood.

HSV-1 [6] = assay: microbe, parasite or virus in culture; assay type: cell-based, herpes simplex virus type 1 strain MacIntyre; details: Human alphaherpesvirus 1, 0.5 h, 37° C., 30 min, read-out: Reduction of virus titer, HSV-1
VSV [7] = assay: microbe, parasite or virus in culture; assay type: cell-based, vesicular stomatitis virus strain Indiana; details: Vesicular stomatitis virus, 0.5 h; for minimal effective concentration: read-out: lowest concentration which reduced the VSV titer by ≥4.0 log10 units
Visna virus = assay: microbe, parasite or virus in culture; assay type: cell-based, Visna virus strain K796; details: Visna-maedi virus, 0.5 h, 37° C., 30 min, read-out: Reduction of virus titer, VV (visna virus)
poliovirus = assay type: cell-based, Poliovirus type 1 strain Chat; details: 8 mg/ml, 37° C., 30 min; control 10^4.7 TCID50
enveloped viruses = assay type: cell-based
sheep fibroblasts = assay: Disintegration of cell membranes, sheep fibroblasts (scanning electron microscopy); details: 1 mg/ml, 37° C., 30 min
VSV [8] = assay: microbe, parasite or virus in culture; assay type: cell-based, vesicular stomatitis virus strain Indiana; details: for effect on viral particles (electron micrographs): 37° C., 30 min
Vero cells = assay: Disintegration of cell membranes, Vero cells (scanning electron microscopy); details: 1 mg/ml, 37° C., 30 min
[9] = Vesicular stomatitis virus, 0.5 h
[10] = Vesicular stomatitis virus, 0.5 h, read-out: Reduction of virus titer, VSV
[11] = read-out: Reduction of virus titer, VSV

CCCCCCCCCCCC(=O)OCC(O)CO (racemic) [Monolaurin (12:0), 1-Monolauroyl-rac-glycerol]
dependence of viral killing on sodium taurocholate (VSV [1]; VSV, human serum): only takes place when sodium taurocholate is present | log reduction at 3000 µM (VSV [1]; Vesicular stomatitis virus, read-out: Reduction in VSV Titer, 3 mM, 10 mM sodium taurocholate, human serum): ≥ 5 | log reduction at 3000 µM (VSV [1]; Vesicular stomatitis virus, read-out: Reduction in VSV Titer, 3 mM, no sodium taurocholate, human serum): 0 | log reduction at 4000 µM (VSV [1]; Vesicular stomatitis virus, read-out: Reduction in VSV Titer, 4 mM, 10 mM sodium taurocholate, human serum): ≥ 5 | log reduction at 4000 µM (VSV [1]; Vesicular stomatitis virus, read-out: Reduction in VSV Titer, 4 mM, no sodium taurocholate, human serum): 0 | log reduction at 5000 µM (VSV [1]; Vesicular stomatitis virus, read-out: Reduction in VSV Titer, 5 mM, 10 mM sodium taurocholate, human serum): ≥ 5 | log reduction at 5000 µM (VSV [1]; Vesicular stomatitis virus, read-out: Reduction in VSV Titer, 5 mM, no sodium taurocholate, human serum): 0 | log reduction at 7500 µM (VSV [1]; Vesicular stomatitis virus, read-out: Reduction in VSV Titer, 7.5 mM, 10 mM sodium taurocholate, human serum (Table 18)): ≥ 5 | log reduction at 15000 µM (VSV [1]; Vesicular stomatitis virus, read-out: Reduction in VSV Titer, 15 mM, 10 mM sodium taurocholate, human serum): ≥ 5 | concentration as low as which kills VSV (VSV [1]; in the presence of 10 mM sodium taurocholate): 3 mM | log reduction at 250 µg/mL (HSV-1 [2]): ≥ 3.7 | minimal effective concentration (VSV [3]; [9]): 250 µg/mL and 900 µM | log reduction at 250 µg/mL (VSV [3]; [10]): ≥ 4 | active concentration relative to corresponding free acids (VSV [3]; monoglyceride vs free acid): ten times lower | Reduction of HSV-L titer (HSV-1 [4]; incubation 0.5 min): ≥ 4.0 | Reduction of HSV-L titer (HSV-1 [4]; incubation 1 min): ≥ 4.0 | Reduction of HSV-L titer (HSV-1 [4]; incubation 5 min): ≥ 4.0 | Reduction of HSV-L titer (HSV-1 [4]; incubation 10 min): ≥ 4.0 | Reduction of HSV-L titer (HSV-1 [4]; incubation 30 min): ≥ 4.0 | log reduction at 2000 µg/mL (Group B streptococcus): 4.5

CCCCCCCCOC[C@@H](O)CO [1-O-Octyl-sn-glycerol, 1-O-octyl-sn-glycerol]
Reduction in VSV titer (VSV [5]; 5 mM, with 10 mM sodium taurocholate, human plasma, 37° 30 min): ≥ 4.0 Log10 | log reduction at 15000 µM (VSV [5]; 2.5 min, read-out: Reduction in VSV Titer, 15 mM, 2.5 min, 37°, human plasma): 0 | log reduction at 15000 µM (VSV [5]; 5 min, read-out: Reduction in VSV Titer, 15 mM, 5 min, 37°, human plasma): ≥ 4 | log reduction at 15000 µM (VSV [5]; 10 min, read-out: Reduction in VSV Titer, 15 mM, 10 min, 37°, human plasma): ≥ 4 | log reduction at 15000 µM (VSV [5]; 0.25 h, read-out: Reduction in VSV Titer, 15 mM, 15 min, 37°, human plasma): ≥ 4 | log reduction at 15000 µM (VSV [5]; 0.5 h, read-out: Reduction in VSV Titer, 15 mM, 30 min, 37°, human plasma): ≥ 4 | log reduction at 15000 µM (VSV [5]; 0.5 h, read-out: Reduction in VSV Titer, 15 mM, no sodium taurocholate, human plasma, 37° 30 min): ≥ 4 | antiviral activity of MG ethers relative to esters, in words (VSV [5]; human plasma, listed as 8 carbon MG ether): just as effective as the naturally occurring esters; also recorded: somewhat more antiviral than the 8 carbon ester | % mot. (sperm; 100 mM in semen, 15 sec., Sample B 37° C., Sample D room temperature): 0% | % mot. (sperm; 100 mM in semen, 30 sec., Sample B 37° C., Sample D room temperature): 0% | % mot. (sperm; 100 mM in semen, 1 min., Sample B 37° C., Sample D room temperature): 0% | % mot. (sperm; 100 mM in semen, 2 min., Sample B 37° C., Sample D room temperature): 0% | % mot. (sperm; 100 mM in semen, 3 min., Sample B 37° C., Sample D room temperature): 0% | % mot. (sperm; 100 mM in semen, 5 min., Sample B 37° C., Sample D room temperature): 0% | % mot. (sperm; 150 mM in semen, 15 sec., Sample A 37° C., Sample C room temperature): 0% | % mot. (sperm; 150 mM in semen, 30 sec., Sample A 37° C., Sample C room temperature): 0% | % mot. (sperm; 150 mM in semen, 1 min., Sample A 37° C., Sample C room temperature): 0% | % mot. (sperm; 150 mM in semen, 2 min., Sample A 37° C., Sample C room temperature): 0% | % mot. (sperm; 150 mM in semen, 3 min., Sample A 37° C., Sample C room temperature): 0% | % mot. (sperm; 150 mM in semen, 5 min., Sample A 37° C., Sample C room temperature): 0% | time within which 0% viability was effected (sperm; A, C 150 mM, B 100 mM in semen): ≤ 3 min | time within which sperm cells were rendered immobile (sperm; A, C 150 mM, B 100 mM in semen): ≤ 15 s | coating of sperm (sperm; A, C 150 mM, B, D 100 mM in semen, 30 minutes): coated the sperm effectively | viability at 100000 µM (sperm; 0.05 h, 100 mM in semen, 3 min., Sample B 37° C.): 0% | viability at 150000 µM (sperm; 0.05 h, 150 mM in semen, 3 min., Sample A 37° C., Sample C room temperature): 0% | viability at 100000 µM (sperm; 5 min, 100 mM in semen, Sample B 37° C., Sample D room temperature): 0% | viability at 150000 µM (sperm; 5 min, 150 mM in semen, Sample A 37° C., Sample C room temperature): 0% | Total White Blood Cells (Total White Blood Cells): 0.6

CCCCCCCCCCCC(=O)O [Lauric (12:0), Lauric]
log reduction at 2000 µg/mL (HSV-1 [6]; 2 mg/ml): ≥ 4 | log reduction at 2000 µg/mL (VSV [7]; [11]): ≥ 4 | minimal effective concentration (VSV [7]): 2000 µg/mL and 10000 µM | log reduction at 2000 µg/mL (Visna virus; 2 mg/ml): ≥ 3.2 | reduction of poliovirus titer (poliovirus): did not cause a significant reduction of virus titer | antiviral activity in words (enveloped viruses): showed activity

CCCCC/C=C\C/C=C\CCCCCCCC(=O)O [Linoleic (18:2), linoleic acid]
effect on cell membranes (sheep fibroblasts): the cell membranes were partly or completely disintegrated | log reduction at 1000 µg/mL (HSV-1 [6]; 1 mg/ml): ≥ 4 | log reduction at 1000 µg/mL (VSV [7]; [11]): ≥ 4 | minimal effective concentration (VSV [7]): 1000 µg/mL and 3500 µM | effect on viral particles (electron micrographs) (VSV [8]; 0.5 mg/ml): leakage of viral envelopes was produced | effect on viral particles (electron micrographs) (VSV [8]; 1 mg/ml): particle disintegration | log reduction at 500 µg/mL (VSV [8]; Vesicular stomatitis virus, 0.5 h, read-out: reduction in virus titer, 0.5 mg/ml, samples used for electron microscopy): 1 | log reduction at 1000 µg/mL (VSV [8]; Vesicular stomatitis virus, 0.5 h, read-out: reduction in virus titer, 1 mg/ml, samples used for electron microscopy): ≥ 3 | log reduction at 1000 µg/mL (Visna virus; 1 mg/ml): ≥ 3.2 | reduction of poliovirus titer (poliovirus): did not cause a significant reduction of virus titer | effect on cell membranes (Vero cells): the cell membranes were partly or completely disintegrated

CCCCC/C=C\C/C=C\CCCCCCCC(=O)OC[C@@H](O)CO [Monolinolein (18:2), Monolinolein]
minimal effective concentration (VSV [3]; [9]): 250 µg/mL and 700 µM | log reduction at 250 µg/mL (VSV [3]; [10]): ≥ 4 | concentration relative to monocaprin for same reduction in viral titer (VSV [3]; maintenance medium, millimolar): one-third the concentration | log reduction at 2000 µg/mL (Group B streptococcus): 4.5

CCCCCCCCCCCCCC(=O)OCC(O)CO (stereo not drawn) [Monomyristin (14:0), Monomyristin]
minimal effective concentration (VSV [3]; [9]): 2000 µg/mL and 13000 µM | log reduction at 2000 µg/mL (VSV [3]; [10]): 3 | antiviral activity in words (enveloped viruses): consistently less active

CCCCCCCCCCCCCC(=O)O [Myristic (14:0), Myristic]
log reduction at 4000 µg/mL (HSV-1 [6]; 4 mg/ml): ≥ 4 | log reduction at 4000 µg/mL (VSV [7]; [11]): ≥ 4 | minimal effective concentration (VSV [7]): 4000 µg/mL and 16000 µM | log reduction at 4000 µg/mL (Visna virus; 4 mg/ml): 1.7 | reduction of poliovirus titer (poliovirus): did not cause a significant reduction of virus titer | antiviral activity in words (enveloped viruses): showed activity
